For this assay, the system named is Lung fibroblasts. Kind of assay: Senescence markers in lung fibroblasts exposed to NRTIs. Type of assay: cell-based, human. The protocol: Cell culture experiments utilizing NRTIs were of the following design. Cultures of either human lung or cardiac fibroblasts were cultivated according to standard culture protocols for these cells (Cristofalo, et al., Journal of Tissue Culture Methods 1980, 6:117-121). Parallel sets of cultures were maintained in normal growth media or in normal growth media with the addition of 1 nM rapamycin. Cultures were maintained with 1 nM rapamycin (Enzo Biologicals) for two weeks before exposure to NRTIs. Cell cultures were exposed to NRTIs at indicated concentrations in individual experiments (generally 10-20 μg/ml) for 7 days, with a change of media and fresh NRTIs at day 4. Mitochondrial measurements, bioanalyzer measurements, immunoblotting for protein expression and phosphorylation status, and assays for senescence were performed at the end of this 7-day period.
Cell culture reagents were from Cellgro, unless indicated. WI-38 fetal-lung primary human fibroblasts or human cardiac fibroblasts were grown in MEM supplemented with 10% fetal bovine serum, 1% L-glutamine, MEM vitamins, and MEM non-essential amino acids. Cells were maintained in a 37° C. in 5% CO2 incubator. For treatment studies, cells were treated with 1 nM rapamycin (Enzo Biologicals) for two weeks before treatment with NRTIs. […]

Turning to `CO[C@H]1C[C@@H]2CC[C@@H](C)[C@@](O)(O2)C(=O)C(=O)N2CCCC[C@H]2C(=O)O[C@H]([C@H](C)C[C@@H]2CC[C@@H](O)[C@H](OC)C2)CC(=O)[C@H](C)/C=C(\C)[C@@H](O)[C@@H](OC)C(=O)[C@H](C)C[C@H](C)/C=C/C=C/C=C/1C` [rapamycin], the “effect of rapamycin treatment on NRTI-induced senescence markers” value is “protection”.
